Assay results reported in patent US20260325533A1, “CDK INHIBITOR COMPOUNDS” (ALEKSIA THERAPEUTICS, INC., priority 2023, published 2026).
Like-named read-outs stand apart in the source and are kept apart here.

Tests used:
CDK2/CCNE1 = CDK2/CCNE1 (Homo sapiens, UniProt P24941); test: CDK2 homogeneous time-resolved fluorescence (HTRF) kinase assay; assay type: biochemical
Method in brief: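 TR-FRET read-out (665 nm, or 665/615 ratio) of Eu-antibody detection of phospho-4E-BP1 (Thr37/46) ULight peptide. Enzyme 3 nM, ATP 1 mM, peptide 50 nM, 1% DMSO; 60 min reaction at 23 °C after 20 min compound preincubation. IC50 from 11-point half-log titrations, top typically 10 μM.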

CDK1/CCNB1 = CDK1/CCNB1 (Homo sapiens, UniProt P06493); test: CDK1 homogeneous time-resolved fluorescence (HTRF) kinase assay; assay type: biochemical
Method in brief: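 CDK1/CCNB1 0.5 nM + cpd, 20 min 23 °C; add 1 mM ATP, 50 nM ULight-4E-BP1 peptide, 60 min 23 °C; stop 10 mM EDTA; 2 nM Eu-Ab, 60 min; HTRF 665 nm. 11-pt half-log, top 10 μM typical; IC50.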

[1] = CDK2/CCNE, <25 nM, read-out: CDK2/CCNE IC50 <25 nM
[2] = CDK1/CCNB, <25 nM, read-out: CDK1/CCNB IC50 <25 nM
[3] = CDK2/CCNE, 25-250 nM marked x, read-out: CDK2/CCNE IC50 25-250 nM
[4] = CDK1/CCNB, >250 nM marked x, read-out: CDK1/CCNB IC50 >250 nM
[5] = CDK2/CCNE, >250 nM marked x, read-out: CDK2/CCNE IC50 >250 nM

CDK1/CCNB1, sequence (P06493 whole entry): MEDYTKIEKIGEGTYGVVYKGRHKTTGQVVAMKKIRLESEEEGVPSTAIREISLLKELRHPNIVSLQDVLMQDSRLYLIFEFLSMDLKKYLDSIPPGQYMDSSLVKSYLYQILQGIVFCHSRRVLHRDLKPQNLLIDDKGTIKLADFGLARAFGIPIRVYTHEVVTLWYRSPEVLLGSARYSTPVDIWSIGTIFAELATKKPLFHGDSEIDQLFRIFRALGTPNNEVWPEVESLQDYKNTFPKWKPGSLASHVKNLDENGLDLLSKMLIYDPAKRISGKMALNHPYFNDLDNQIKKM
CDK1/CCNB1, sequence (P14635 whole entry partner): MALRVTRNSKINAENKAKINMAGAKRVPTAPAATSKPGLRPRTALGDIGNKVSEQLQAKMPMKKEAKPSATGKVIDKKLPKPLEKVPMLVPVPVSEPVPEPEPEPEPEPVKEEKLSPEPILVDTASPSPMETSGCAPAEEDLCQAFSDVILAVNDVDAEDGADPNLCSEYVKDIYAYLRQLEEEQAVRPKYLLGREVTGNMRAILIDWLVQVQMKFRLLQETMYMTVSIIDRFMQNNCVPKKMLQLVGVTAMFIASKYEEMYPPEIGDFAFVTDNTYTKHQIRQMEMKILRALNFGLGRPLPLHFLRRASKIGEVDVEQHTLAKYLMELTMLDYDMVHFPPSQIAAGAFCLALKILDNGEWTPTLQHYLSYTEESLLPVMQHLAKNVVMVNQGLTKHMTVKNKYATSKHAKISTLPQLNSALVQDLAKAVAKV

Row | Structure (SMILES) | IC50 (CDK2/CCNE1; [3]) | IC50 (CDK1/CCNB1; [4]) | also measured
1 | N#CC1CCN(c2nccc3cnc(Nc4cccc(C(=O)ON5C(=O)CCC5=O)c4)cc23)CC1 [Ex 258, 2,5-dioxopyrrolidin-1-yl 3-((5-(4-cyanopiperidin-1-yl)-2,6-naphthyridin-3-yl)amino)benzoate] |  |  | IC50 (CDK2/CCNE1; [1]): < 25 nM; IC50 (CDK1/CCNB1; [2]): < 25 nM
2 | N#CC1CCN(c2nccc3cnc(Nc4ccc(C(=O)ON5C(=O)CCC5=O)cc4)cc23)CC1 [Ex 110, 2,5-dioxopyrrolidin-1-yl 4-((5-(4-cyanopiperidin-1-yl)-2,6-naphthyridin-3-yl)amino)benzoate] |  |  | IC50 (CDK2/CCNE1; [1]): < 25 nM; IC50 (CDK1/CCNB1; [2]): < 25 nM
3 | CS(=O)(=O)c1ccc(Nc2cc3c(C#C[C@H]4CC[C@H](C(N)=O)CC4)nccc3cn2)cc1 [Ex 168, (1r,4r)-4-((7-((4-(methylsulfonyl)phenyl)amino)-2,6-naphthyridin-1-yl)ethynyl)cyclohexane-1-carboxamide] |  |  | IC50 (CDK2/CCNE1; [1]): < 25 nM; IC50 (CDK1/CCNB1; CDK1/CCNB, 25-250 nM marked x, read-out: CDK1/CCNB IC50 25-250 nM): 25 to 250 nM
4 | CS(=O)(=O)c1ccc(Nc2cc3c(-c4ccc5c(c4)C4(CC4)C(=O)N5)nccc3cn2)cc1 [Ex 163, 5'-(7-((4-(methylsulfonyl)phenyl)amino)-2,6-naphthyridin-1-yl)spiro[cyclopropane-1,3'-indolin]-2'-one] | 25 to 250 nM | > 250 nM | 
5 | CC(=O)N1CCC(c2nccc3cnc(Nc4ccc(S(C)(=O)=O)cc4)cc23)CC1 [Ex 154, 1-(4-(7-((4-(methylsulfonyl)phenyl)amino)-2,6-naphthyridin-1-yl)piperidin-1-yl)ethan-1-one] |  | > 250 nM | IC50 (CDK2/CCNE1; [5]): > 250 nM
6 | N#CC1CCN(c2nccc3cnc(Nc4ccc(OS(=O)(=O)F)cc4)cc23)CC1 [Example 14, 4-((5-(4-cyanopiperidin-1-yl)-2,6-naphthyridin-3-yl)amino)phenyl sulfurofluoridate] |  |  | IC50 (CDK2/CCNE1): > 250 nM; IC50 (CDK1/CCNB1): > 250 nM
7 | Cn1cc(-c2nccc3cnc(Nc4ccc(S(C)(=O)=O)cc4)cc23)nn1 [Ex 125, 5-(1-methyl-1H-1,2,3-triazol-4-yl)-N-(4-(methylsulfonyl)phenyl)-2,6-naphthyridin-3-amine] | 25 to 250 nM | > 250 nM | 
8 | CS(=O)(=O)c1ccc(Nc2ncc3cccc(N4CCC(C#N)CC4)c3n2)cc1 [Example 961, 1-(2-((4-(methylsulfonyl)phenyl)amino)quinazolin-8-yl) piperidine-4-carbonitrile] |  |  | IC50 (CDK2/CCNE1; 3 nM CDK2/CCNE1, 1 mM ATP, read-out: CDK2/CCNE IC50 25-250 nM): 25 to 250 nM; IC50 (CDK1/CCNB1; 0.5 nM CDK1/CCNB1, 1 mM ATP, read-out: CDK1/CCNB IC50 >250 nM): > 250 nM
9 | CNC(=O)N1CCC(c2nccc3cnc(Nc4ccc(S(C)(=O)=O)cc4)cc23)CC1 [Ex 177, N-methyl-4-(7-((4-(methylsulfonyl)phenyl)amino)-2,6-naphthyridin-1-yl)piperidine-1-carboxamide] |  | > 250 nM | IC50 (CDK2/CCNE1; [5]): > 250 nM
10 | CS(=O)(=O)c1ccc(Nc2cc3c(C4CCCC(=O)C4)nccc3cn2)cc1 (racemic) [Ex 204, 3-(7-((4-(methylsulfonyl)phenyl)amino)-2,6-naphthyridin-1-yl)cyclohexan-1-one] | 25 to 250 nM | > 250 nM | 
11 | N#CC1CCN(c2nccc3cnc(Nc4cccc(C=O)c4)cc23)CC1 [Ex 140, 1-(7-((3-formylphenyl)amino)-2,6-naphthyridin-1-yl)piperidine-4-carbonitrile] | 25 to 250 nM | > 250 nM | 
12 | C=CS(=O)(=O)N1CCC(Nc2cc3c(N4CCC(F)(F)CC4)nccc3cn2)CC1 [Example 10, 5-(4,4-difluoropiperidin-1-yl)-N-(1-(vinylsulfonyl)piperidin-4-yl)-2,6-naphthyridin-3-amine] | 25 to 250 nM | > 250 nM | 
13 | Cc1c(-c2nccc3cnc(Nc4ccc(S(C)(=O)=O)cc4)cc23)ccc2nn(C3CCOCC3)cc12 [Ex 165, 5-(4-methyl-2-(tetrahydro-2H-pyran-4-yl)-2H-indazol-5-yl)-N-(4-(methylsulfonyl)phenyl)-2,6-naphthyridin-3-amine] | 25 to 250 nM | > 250 nM | 
14 | C=CS(=O)(=O)N1CCC(Nc2cc3c(-c4cnn(C)c4)nccc3cn2)CC1 [Ex 108, 5-(1-methyl-1H-pyrazol-4-yl)-N-(1-(vinylsulfonyl)piperidin-4-yl)-2,6-naphthyridin-3-amine] | 25 to 250 nM | > 250 nM | 

Now from value to compound, other results behind:

Row | IC50 (CDK2/CCNE1; [3]) | IC50 (CDK1/CCNB1; [4]) | Structure (SMILES) | also measured
15 | 25 to 250 nM | > 250 nM | C=CS(=O)(=O)c1ccc(Nc2cc3c(-c4ccc5[nH]ncc5c4)nccc3cn2)cc1 [Ex 205, 5-(1H-indazol-5-yl)-N-(4-(vinylsulfonyl)phenyl)-2,6-naphthyridin-3-amine] | 
16 |  | > 250 nM | N#CC1CCN(c2nccc3cnc(Nc4ccc(C(=O)NC5CCSC5=O)cc4)cc23)CC1 (centres unmarked) [Example 16, 4-((5-(4-cyanopiperidin-1-yl)-2,6-naphthyridin-3-yl)amino)-N-(2-oxotetrahydrothiophen-3-yl)benzamide] | IC50 (CDK2/CCNE1; [5]): > 250 nM
17 | 25 to 250 nM | > 250 nM | Cc1cc2nn(C)cc2cc1-c1nccc2cnc(NC3CCN(S(C)(=O)=O)CC3)cc12 [Ex 159, 5-(2,6-dimethyl-2H-indazol-5-yl)-N-(1-(methylsulfonyl)piperidin-4-yl)-2,6-naphthyridin-3-amine] | 
18 | 25 to 250 nM | > 250 nM | CN(Cc1ccccc1)C1CCN(c2nccc3cnc(NC4CCN(S(C)(=O)=O)CC4)cc23)CC1 [Ex 55, 5-(4-(benzyl(methyl)amino)piperidin-1-yl)-N-(1-(methylsulfonyl)piperidin-4-yl)-2,6-naphthyridin-3-amine] | 
19 | 25 to 250 nM | > 250 nM | CS(=O)(=O)N1CCC(Nc2cc3c(-c4ccc(CN5CCOCC5)cc4)nccc3cn2)CC1 [Ex 84, N-(1-(methylsulfonyl)piperidin-4-yl)-5-(4-(morpholinomethyl)phenyl)-2,6-naphthyridin-3-amine] | 
20 | 25 to 250 nM | > 250 nM | CS(=O)(=O)N1CCC(Nc2cc3c(N4CCC(C(N)=O)C4)nccc3cn2)CC1 (racemic) [Ex 260, 1-(7-((1-(methylsulfonyl)piperidin-4-yl)amino)-2,6-naphthyridin-1-yl)pyrrolidine-3-carboxamide] | 
21 | 25 to 250 nM | > 250 nM | N#CC1CCN(c2nccc3cnc(Nc4ccc(C=O)cc4)cc23)CC1 [Ex 128, 1-(7-((4-formylphenyl)amino)-2,6-naphthyridin-1-yl)piperidine-4-carbonitrile] | 
22 | 25 to 250 nM | > 250 nM | Cc1c(-c2nccc3cnc(Nc4ccc(S(C)(=O)=O)cc4)cc23)ccc2c1cnn2C1CCNCC1 [Ex 182, 5-(4-methyl-1-(piperidin-4-yl)-1H-indazol-5-yl)-N-(4-(methylsulfonyl)phenyl)-2,6-naphthyridin-3-amine] | 
23 | 25 to 250 nM | > 250 nM | CS(=O)(=O)N1CCC(Nc2cc3c(N4CCN(CCO)CC4)nccc3cn2)CC1 [Ex 60, 2-(4-(7-((1-(methylsulfonyl)piperidin-4-yl)amino)-2,6-naphthyridin-1-yl)piperazin-1-yl)ethan-1-ol] | 
24 | 25 to 250 nM | > 250 nM | N#CC1CCN(c2nccc3cnc(Nc4cccc(CCO)c4)cc23)CC1 [Ex 143, 1-(7-((3-(2-hydroxyethyl)phenyl)amino)-2,6-naphthyridin-1-yl)piperidine-4-carbonitrile] | 
25 |  | > 250 nM | CC(C)NC(=O)[C@H]1CC[C@H](c2nccc3cnc(Nc4ccc(S(C)(=O)=O)cc4)cc32)CC1 [Ex 181, (1r,4r)-N-isopropyl-4-(7-((4-(methylsulfonyl)phenyl)amino)-2,6-naphthyridin-1-yl)cyclohexane-1-carboxamide] | IC50 (CDK2/CCNE1; [5]): > 250 nM
